Measurements reported in ChEMBL document CHEMBL4421722, “Inhibitors of protein prenyltransferases” (2013).

species on record: Rattus norvegicus; experiment: Inhibition of rat recombinant geranylgeranyltransferase type I expressed in Escherichia coli assessed as residual enzyme activity for geranylgeranylation of K-Ras4B at 50 uM incubated for 30 mins in presence of [3H]GGPP by scintillation counting assay relative to control

Row | Compound | Activity [%]
1 | COc1ccc(S[C@@H]2C[C@@H](c3ccc4c(c3)OCO4)N(S(=O)(=O)c3ccc(C)cc3)C[C@H]2C(=O)O)cc1 | 100
2 | COc1ccc([C@@H]2CC=C(C(=O)O)[C@H](c3cccc(Cl)c3)N2S(=O)(=O)c2ccccc2)cc1 | 56.1
3 | C=CCS[C@@H]1C[C@@H](c2ccc(C)cc2)N(S(=O)(=O)c2ccccc2)C[C@H]1C(=O)O | 50.7
4 | CC(=O)C1=CC[C@@H](c2ccc(C)cc2)N(S(=O)(=O)c2ccccc2C)C1 | 85.3
5 | COc1ccc(S[C@@H]2C[C@@H](c3ccc(C)cc3)N(S(C)(=O)=O)C[C@H]2C(=O)O)cc1 | 99
6 | Cc1ccc(S(=O)(=O)N2[C@@H](c3ccc(Br)cc3)C(C(=O)O)=CC[C@H]2c2ccccc2F)cc1 | 72.8
7 | Cc1ccc(S(=O)(=O)N2[C@@H](c3cccc(Cl)c3)C(C(=O)O)=CC[C@H]2c2ccc3c(c2)OCO3)cc1 | 73.9
8 | Cc1ccc([C@H]2C(C(=O)O)=CC[C@@H](c3ccccc3)N2S(C)(=O)=O)cc1 | 90.4
9 | CCCCCCS[C@@H]1C[C@@H](c2cc(OC)c(OC)c(OC)c2)N(S(=O)(=O)c2ccc(C)cc2)C[C@H]1C(=O)O | 93.6
10 | CCS[C@@H]1C[C@@H](c2ccc(Cl)cc2)N(S(=O)(=O)c2ccc(C)cc2)C[C@H]1C(=O)O | 87.8
11 | Cc1ccc([C@@H]2CC=C(C(=O)O)[C@H](c3ccc(Cl)cc3)N2S(=O)(=O)c2ccc(Cl)cc2)cc1 | 63.8
12 | Cc1ccc(S(=O)(=O)N2C[C@@H](C(=O)O)[C@H](SCc3ccc(Cl)cc3)C[C@H]2c2ccccc2F)cc1 | 61.4
13 | COc1ccc([C@@H]2CC=C(C(=O)O)[C@H](c3ccc(Cl)cc3)N2S(=O)(=O)c2ccccc2)cc1 | 86.8
14 | CCS[C@@H]1C[C@@H](c2ccc(C)cc2)N(S(=O)(=O)c2ccc(Cl)cc2)C[C@H]1C(=O)O | 58.3
15 | COc1ccc([C@@H]2CC=C(C(=O)O)[C@H](c3ccc(F)cc3)N2S(=O)(=O)c2ccccc2)cc1 | 67.7
16 | CCCS[C@@H]1C[C@@H](c2ccc(Cl)cc2)N(S(=O)(=O)c2ccccc2C)C[C@H]1C(=O)O | 53.3
17 | COc1cc([C@@H]2C[C@@H](Sc3ccccc3)[C@H](C(=O)O)CN2S(=O)(=O)c2ccc(C)cc2)cc(OC)c1OC | 83.7
18 | COC(=O)c1ccccc1S(=O)(=O)N1[C@@H](c2cccc(F)c2)C(C(=O)O)=CC[C@H]1c1ccc(C)cc1 | 64.5
19 | Cc1ccc(S(=O)(=O)N2[C@@H](c3cccc(Cl)c3)C(C(=O)O)=CC[C@H]2c2ccccc2F)cc1 | 70.1
20 | Cc1ccc(S(=O)(=O)N2[C@@H](c3cccc(Cl)c3)C(C(=O)O)=CC[C@H]2c2cccc(F)c2)cc1 | 62.3
21 | CCS[C@@H]1C[C@@H](c2ccccc2F)N(S(=O)(=O)c2ccc(C)cc2)C[C@H]1C(=O)O | 89.4
22 | CCCCCCS[C@@H]1C[C@@H](c2ccc(OC)cc2)N(S(=O)(=O)c2ccc(Cl)cc2)C[C@H]1C(=O)O | 68.3
23 | Cc1ccc(S(=O)(=O)N2C[C@@H](C(=O)O)[C@H](SCCC(C)C)C[C@H]2c2ccccc2)cc1 | 90
24 | Cc1ccc([C@@H]2CC=C(C(=O)O)[C@H](c3cccc(F)c3)N2S(=O)(=O)c2ccccc2C)cc1 | 63.4
25 | Cc1ccc(S(=O)(=O)N2C[C@@H](C(=O)O)[C@H](SCc3ccc(Cl)cc3)C[C@H]2c2ccc3c(c2)OCO3)cc1 | 37.4
26 | CCS[C@@H]1C[C@@H](c2cc(OC)c(OC)c(OC)c2)N(S(=O)(=O)c2ccc(C)cc2)C[C@H]1C(=O)O | 90.4

Row | Compound | Activity [%]
27 | CCCCCCS[C@@H]1C[C@@H](c2ccc(C)cc2)N(S(=O)(=O)c2ccccc2)C[C@H]1C(=O)O | 81.2
28 | C=CCS[C@@H]1C[C@@H](c2ccc(C)cc2)N(S(=O)(=O)c2ccc(C)cc2)C[C@H]1C(=O)O | 94.1
29 | Cc1ccc([C@@H]2CC=C(C(=O)O)[C@H](c3ccc(C(C)(C)C)cc3)N2S(=O)(=O)c2ccccc2)cc1 | 81.6
30 | COc1cccc([C@@H]2C[C@@H](SCc3ccccc3)[C@H](C(=O)O)CN2S(=O)(=O)c2ccc(C)cc2)c1 | 35
31 | Cc1ccc(S(=O)(=O)N2[C@@H](c3ccc(C(C)(C)C)cc3)C(C(=O)O)=CC[C@H]2c2cccs2)cc1 | 68.1
32 | COc1ccc([C@@H]2C[C@@H](SCc3ccccc3)[C@H](C(=O)O)CN2S(=O)(=O)c2ccccc2C)cc1 | 33.9
33 | COc1ccc([C@@H]2CC=C(C(=O)O)[C@H](c3cccc(F)c3)N2S(=O)(=O)c2ccc(Cl)cc2)cc1 | 69.3
34 | CCS[C@@H]1C[C@@H](c2ccc(OC)cc2)N(S(=O)(=O)c2ccccc2)C[C@H]1C(=O)O | 89.9
35 | Cc1ccc([C@@H]2C[C@@H](SCC(C)C)[C@H](C(=O)O)CN2S(=O)(=O)c2ccc(C)cc2)cc1 | 83.5
36 | COC(=O)c1ccccc1S(=O)(=O)N1[C@@H](c2cccc(C)c2)C(C(=O)O)=CC[C@H]1c1ccc(C)cc1 | 54.2
37 | CCCS[C@@H]1C[C@@H](c2ccc(C)cc2)N(S(C)(=O)=O)C[C@H]1C(=O)O | 96.8
38 | Cc1ccc([C@H]2C(C(=O)O)=CC[C@@H](c3cccs3)N2S(=O)(=O)c2ccc(C)cc2)cc1 | 73.4
39 | Cc1ccc(S(=O)(=O)N2[C@@H](c3cccc(C)c3)C(C(=O)O)=CC[C@H]2c2ccc(C#N)cc2)cc1 | 66.7
40 | O=C(O)C1=CC[C@@H](c2ccc(Cl)cc2)N(S(=O)(=O)c2ccc(Cl)cc2)[C@H]1c1ccc(F)cc1 | 43.5
41 | CCCCCCS[C@@H]1C[C@@H](c2ccc(C)cc2)N(S(=O)(=O)c2ccc(Cl)cc2)C[C@H]1C(=O)O | 71.6
42 | COc1ccc([C@@H]2CC=C(C(=O)O)[C@H](c3ccc(Br)cc3)N2S(=O)(=O)c2ccccc2)cc1 | 82.3
43 | COc1cccc([C@@H]2CC=C(C(=O)O)[C@H](c3ccc(C)cc3)N2S(=O)(=O)c2ccc(C)cc2)c1 | 63.1
44 | COc1ccc([C@@H]2CC=C(C(=O)O)[C@H](c3ccc(Cl)cc3)N2S(=O)(=O)c2ccc(C)cc2)cc1OC | 83.2
45 | Cc1ccc([C@@H]2C[C@@H](SCc3ccc(C(C)(C)C)cc3)[C@H](C(=O)O)CN2S(=O)(=O)c2ccccc2C)cc1 | 69.5
46 | Cc1ccc(S(=O)(=O)N2[C@@H](c3ccc(Br)cc3)C(C(=O)O)=CC[C@H]2c2ccccc2)cc1 | 74.6
47 | Cc1ccccc1S(=O)(=O)N1[C@@H](c2ccc(Cl)cc2)C(C(=O)O)=CC[C@H]1c1ccc(Cl)cc1 | 54.4
48 | COc1cccc([C@@H]2C[C@@H](Sc3ccc(Cl)cc3)[C@H](C(=O)O)CN2S(=O)(=O)c2ccc(C)cc2)c1 | 60.3
49 | Cc1ccc(S(=O)(=O)N2[C@@H](c3cccc(Br)c3)C(C(=O)O)=CC[C@H]2c2ccc(C#N)cc2)cc1 | 93.5
50 | COc1cc([C@@H]2C[C@@H](SCc3ccccc3)[C@H](C(=O)O)CN2S(=O)(=O)c2ccc(C)cc2)cc(OC)c1OC | 63.7
51 | COC(=O)c1ccccc1S(=O)(=O)N1[C@@H](c2ccc(Br)cc2)C(C(=O)O)=CC[C@H]1c1ccc(C)cc1 | 77.4
52 | CCc1ccc([C@@H]2C[C@@H](SCc3ccc(C(C)(C)C)cc3)[C@H](C(=O)O)CN2S(=O)(=O)c2ccc(C)cc2)cc1 | 64.4

Row | Compound | Activity [%]
53 | Cc1ccc([C@@H]2C[C@@H](SCc3ccc(C(C)(C)C)cc3)[C@H](C(=O)O)CN2S(=O)(=O)c2ccccc2)cc1 | 68.1
54 | COc1ccc(S[C@@H]2C[C@@H](c3ccccc3F)N(S(=O)(=O)c3ccc(C)cc3)C[C@H]2C(=O)O)cc1 | 100
55 | Cc1ccc(S(=O)(=O)N2C[C@@H](C(=O)O)[C@H](SC3CCCC3)C[C@H]2c2ccccc2)cc1 | 93.6
56 | C=CCS[C@@H]1C[C@@H](c2ccc(OC)c(OC)c2)N(S(=O)(=O)c2ccc(C)cc2)C[C@H]1C(=O)O | 109
57 | COc1ccc([C@@H]2C[C@@H](SCC(C)C)[C@H](C(=O)O)CN2S(=O)(=O)c2ccc(C)cc2)cc1 | 79.3
58 | Cc1ccc(S(=O)(=O)N2[C@@H](c3ccc(Br)cc3)C(C(=O)O)=CC[C@H]2c2cccc(Br)c2)cc1 | 57.9
59 | COc1cccc([C@@H]2C[C@@H](Sc3ccccc3)[C@H](C(=O)O)CN2S(=O)(=O)c2ccc(C)cc2)c1 | 86.1
60 | Cc1ccc(S(=O)(=O)N2[C@@H](c3ccc(Cl)cc3)C(C(=O)O)=CC[C@H]2c2ccc3c(c2)OCO3)cc1 | 73.4
61 | Cc1ccc(S(=O)(=O)N2[C@@H](c3cccc(F)c3)C(C(=O)O)=CC[C@H]2c2cccc(F)c2)cc1 | 69.9
62 | Cc1ccc(S(=O)(=O)N2[C@@H](c3ccc(F)cc3)C(C(=O)O)=CC[C@H]2c2cccc(F)c2)cc1 | 63.4
63 | Cc1ccc(S(=O)(=O)N2C[C@@H](C(=O)O)[C@H](SCC(C)C)C[C@H]2c2cccc(Cl)c2)cc1 | 79.7
64 | Cc1ccc([C@H]2C(C(=O)O)=CC[C@@H](c3cccc(F)c3)N2S(=O)(=O)c2ccc(C)cc2)cc1 | 81.3
65 | CCCCS[C@@H]1C[C@@H](c2ccc(Cl)cc2)N(S(=O)(=O)c2ccccc2C)C[C@H]1C(=O)O | 87.5
66 | CCCS[C@@H]1C[C@@H](c2ccc(OC)cc2)N(S(=O)(=O)c2ccccc2C)C[C@H]1C(=O)O | 88.4
67 | COc1ccc([C@@H]2CC=C(C(=O)O)[C@H](c3cccc(Br)c3)N2S(=O)(=O)c2ccc(C)cc2)cc1 | 84.5
68 | COc1ccc([C@@H]2CC=C(C(=O)O)[C@H](c3cccc(Cl)c3)N2S(=O)(=O)c2ccc(Cl)cc2)cc1 | 53.2
69 | CCCCCS[C@@H]1C[C@@H](c2ccc(C)cc2)N(S(C)(=O)=O)C[C@H]1C(=O)O | 107
70 | COc1ccc([C@@H]2C[C@@H](SCC(C)C)[C@H](C(=O)O)CN2S(=O)(=O)c2ccc(C)cc2)cc1OC | 91.6
71 | Cc1ccc(S(=O)(=O)N2[C@@H](c3cccc(Br)c3)C(C(=O)O)=CC[C@H]2c2ccccc2)cc1 | 65.9
72 | Cc1ccc(S(=O)(=O)N2C[C@@H](C(=O)O)[C@H](SCc3ccc(C(C)(C)C)cc3)C[C@H]2c2cccc(Cl)c2)cc1 | 99
73 | Cc1ccc([C@@H]2CC=C(C(=O)O)[C@H](c3ccc(F)cc3)N2S(=O)(=O)c2ccc(Cl)cc2)cc1 | 60
74 | Cc1ccc(S(=O)(=O)N2[C@@H](c3cccc(Cl)c3)C(C(=O)O)=CC[C@H]2c2ccc(Cl)cc2)cc1 | 59.2
75 | COc1ccc([C@@H]2CC=C(C(=O)O)[C@H](c3cccc(C)c3)N2S(=O)(=O)c2ccccc2)cc1 | 72.6
76 | Cc1ccc(S[C@@H]2C[C@@H](c3cccc(Br)c3)N(S(=O)(=O)c3ccc(C)cc3)C[C@H]2C(=O)O)cc1 | 94
